Laboratory results from ChEMBL document CHEMBL4507324 (2021).

Experiments:
Conditions in all cases: Compound concentration 100.0 nM
[1] = target: Atypical kinase COQ8A, mitochondrial (Homo sapiens) (UniProt Q8NI60)
[2] = target: Tyrosine-protein kinase FRK (Homo sapiens) (UniProt P42685)
[3] = target: Aurora kinase A (Homo sapiens) (UniProt O14965)
[4] = target: Bone morphogenetic protein receptor type-1A (Homo sapiens) (UniProt P36894)
[5] = target: AP2-associated protein kinase 1 (Homo sapiens) (UniProt Q2M2I8)
[6] = target: Wee1-like protein kinase (Homo sapiens) (UniProt P30291)
[7] = target: Microtubule-associated serine/threonine-protein kinase 1 (Homo sapiens) (UniProt Q9Y2H9)
[8] = target: Mitogen-activated protein kinase 7 (Homo sapiens) (UniProt Q13164)
[9] = target: Ephrin type-A receptor 8 (Homo sapiens) (UniProt P29322)
[10] = target: MAP/microtubule affinity-regulating kinase 4 (Homo sapiens) (UniProt Q96L34)
[11] = target: Epithelial discoidin domain-containing receptor 1 (Homo sapiens) (UniProt Q08345)
[12] = target: Non-receptor tyrosine-protein kinase TNK1 (Homo sapiens) (UniProt Q13470)
[13] = target: Inhibitor of nuclear factor kappa-B kinase subunit alpha (Homo sapiens) (UniProt O15111)
[14] = target: G protein-coupled receptor kinase 4 (Homo sapiens) (UniProt P32298)
[15] = target: Serine/threonine-protein kinase 32A (Homo sapiens) (UniProt Q8WU08)
[16] = target: Cyclin-G-associated kinase (Homo sapiens) (UniProt O14976)
[17] = target: MAP kinase-activated protein kinase 2 (Homo sapiens) (UniProt P49137)
[18] = target: Serine/threonine-protein kinase PLK1 (Homo sapiens) (UniProt P53350)
[19] = target: Serine/threonine-protein kinase MRCK beta (Homo sapiens) (UniProt Q9Y5S2)
[20] = target: Calcium/calmodulin-dependent protein kinase type 1 (Homo sapiens) (UniProt Q14012)
[21] = system: Tyrosine-protein kinase ABL1 (Homo sapiens), P00519 [Q252H]
[22] = target: Mitogen-activated protein kinase kinase kinase 14 (Homo sapiens) (UniProt Q99558)
[23] = system: Phosphatidylinositol 4,5-bisphosphate 3-kinase catalytic subunit alpha isoform (Homo sapiens), P42336 [M1043I]
[24] = target: Bone morphogenetic protein receptor type-2 (Homo sapiens) (UniProt Q13873)
[25] = target: Tyrosine-protein kinase SYK (Homo sapiens) (UniProt P43405)
[26] = target: Receptor tyrosine-protein kinase erbB-2 (Homo sapiens) (UniProt P04626)
[27] = target: Glycogen synthase kinase-3 beta (Homo sapiens) (UniProt P49841)
[28] = target: Mitogen-activated protein kinase 12 (Homo sapiens) (UniProt P53778)
[29] = target: Tyrosine-protein kinase HCK (Homo sapiens) (UniProt P08631)
[30] = target: Cyclin-dependent kinase 4 (Homo sapiens) (UniProt P11802)
[31] = target: Protein-tyrosine kinase 2-beta (Homo sapiens) (UniProt Q14289)
[32] = system: Epidermal growth factor receptor (Homo sapiens), P00533 [UNDEFINED MUTATION]
[33] = target: Dual specificity mitogen-activated protein kinase kinase 2 (Homo sapiens) (UniProt P36507)
[34] = target: Cyclin-dependent kinase 3 (Homo sapiens) (UniProt Q00526)
[35] = target: Interleukin-1 receptor-associated kinase 4 (Homo sapiens) (UniProt Q9NWZ3)
[36] = target: Non-receptor tyrosine-protein kinase TYK2 (Homo sapiens) (UniProt P29597)
[37] = target: cGMP-dependent protein kinase 1 (Homo sapiens) (UniProt Q13976)
[38] = target: Tyrosine-protein kinase BTK (Homo sapiens) (UniProt Q06187)
[39] = target: Serine/threonine-protein kinase BRSK1 (Homo sapiens) (UniProt Q8TDC3)
[40] = target: Serine/threonine-protein kinase PAK 2 (Homo sapiens) (UniProt Q13177)
[41] = target: RAF proto-oncogene serine/threonine-protein kinase (Homo sapiens) (UniProt P04049)
[42] = system: Tyrosine-protein kinase ABL1 (Homo sapiens), P00519 [H396P]
[43] = target: Serine/threonine-protein kinase Sgk2 (Homo sapiens) (UniProt Q9HBY8)
[44] = target: Macrophage colony-stimulating factor 1 receptor (Homo sapiens) (UniProt P07333)
[45] = target: Casein kinase I isoform gamma-2 (Homo sapiens) (UniProt P78368)

Sequence of RAF proto-oncogene serine/threonine-protein kinase (Homo sapiens) (P04049 whole entry): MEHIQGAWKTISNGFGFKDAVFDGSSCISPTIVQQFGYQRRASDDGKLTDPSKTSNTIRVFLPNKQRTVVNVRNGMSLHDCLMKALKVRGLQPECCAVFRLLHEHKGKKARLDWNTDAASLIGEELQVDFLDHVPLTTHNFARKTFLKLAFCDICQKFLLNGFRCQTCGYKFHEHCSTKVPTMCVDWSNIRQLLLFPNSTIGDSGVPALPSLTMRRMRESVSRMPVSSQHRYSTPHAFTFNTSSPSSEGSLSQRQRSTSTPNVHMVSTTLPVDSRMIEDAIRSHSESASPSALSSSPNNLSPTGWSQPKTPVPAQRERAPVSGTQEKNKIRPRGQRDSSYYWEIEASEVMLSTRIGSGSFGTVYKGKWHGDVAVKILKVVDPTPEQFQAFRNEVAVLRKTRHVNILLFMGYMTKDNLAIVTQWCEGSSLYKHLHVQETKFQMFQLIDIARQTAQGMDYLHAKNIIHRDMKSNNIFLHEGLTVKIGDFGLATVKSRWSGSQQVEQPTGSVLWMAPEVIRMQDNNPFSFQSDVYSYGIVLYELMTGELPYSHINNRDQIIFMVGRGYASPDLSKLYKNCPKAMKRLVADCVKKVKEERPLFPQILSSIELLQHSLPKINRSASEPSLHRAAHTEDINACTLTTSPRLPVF
Sequence of Phosphatidylinositol 4,5-bisphosphate 3-kinase catalytic subunit alpha isoform (Homo sapiens), P42336 [M1043I] (P42336 whole entry M1043I, canonical isoform): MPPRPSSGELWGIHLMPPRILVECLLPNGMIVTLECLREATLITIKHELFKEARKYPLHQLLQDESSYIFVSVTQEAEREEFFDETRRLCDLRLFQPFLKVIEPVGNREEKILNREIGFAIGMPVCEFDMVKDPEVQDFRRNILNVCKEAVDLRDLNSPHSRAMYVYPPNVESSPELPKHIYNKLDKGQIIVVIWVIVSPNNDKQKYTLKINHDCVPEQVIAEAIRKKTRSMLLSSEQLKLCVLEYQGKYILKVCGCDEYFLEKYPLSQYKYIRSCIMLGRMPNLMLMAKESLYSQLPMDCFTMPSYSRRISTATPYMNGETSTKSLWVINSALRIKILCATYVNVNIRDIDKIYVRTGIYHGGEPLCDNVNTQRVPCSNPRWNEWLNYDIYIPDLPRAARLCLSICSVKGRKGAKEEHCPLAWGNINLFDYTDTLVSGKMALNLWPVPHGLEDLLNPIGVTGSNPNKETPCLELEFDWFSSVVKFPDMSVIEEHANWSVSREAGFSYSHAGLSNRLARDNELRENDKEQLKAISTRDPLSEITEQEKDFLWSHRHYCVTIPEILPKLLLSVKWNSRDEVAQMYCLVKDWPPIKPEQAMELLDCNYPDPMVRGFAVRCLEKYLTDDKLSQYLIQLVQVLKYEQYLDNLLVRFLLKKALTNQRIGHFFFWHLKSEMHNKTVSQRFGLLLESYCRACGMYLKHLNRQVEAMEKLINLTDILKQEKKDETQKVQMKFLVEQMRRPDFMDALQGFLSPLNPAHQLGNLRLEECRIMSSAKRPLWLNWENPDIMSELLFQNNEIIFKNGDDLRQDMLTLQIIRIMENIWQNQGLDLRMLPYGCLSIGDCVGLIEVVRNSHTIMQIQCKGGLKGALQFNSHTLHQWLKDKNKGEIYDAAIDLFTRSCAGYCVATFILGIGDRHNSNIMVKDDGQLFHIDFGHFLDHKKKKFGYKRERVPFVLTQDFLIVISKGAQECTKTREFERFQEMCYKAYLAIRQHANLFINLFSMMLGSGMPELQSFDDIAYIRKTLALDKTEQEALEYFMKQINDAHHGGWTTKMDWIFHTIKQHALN
Sequence of Cyclin-dependent kinase 4 (Homo sapiens) (P11802 whole entry): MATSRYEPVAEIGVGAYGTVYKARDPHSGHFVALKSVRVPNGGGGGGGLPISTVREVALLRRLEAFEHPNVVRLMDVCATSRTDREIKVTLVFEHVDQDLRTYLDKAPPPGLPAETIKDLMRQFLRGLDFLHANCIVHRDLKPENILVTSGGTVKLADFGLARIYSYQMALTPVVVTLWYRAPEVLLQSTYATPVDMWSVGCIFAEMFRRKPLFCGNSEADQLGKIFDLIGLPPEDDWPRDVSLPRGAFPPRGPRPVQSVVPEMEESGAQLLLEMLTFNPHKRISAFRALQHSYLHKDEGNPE
Sequence of Bone morphogenetic protein receptor type-1A (Homo sapiens) (P36894 whole entry): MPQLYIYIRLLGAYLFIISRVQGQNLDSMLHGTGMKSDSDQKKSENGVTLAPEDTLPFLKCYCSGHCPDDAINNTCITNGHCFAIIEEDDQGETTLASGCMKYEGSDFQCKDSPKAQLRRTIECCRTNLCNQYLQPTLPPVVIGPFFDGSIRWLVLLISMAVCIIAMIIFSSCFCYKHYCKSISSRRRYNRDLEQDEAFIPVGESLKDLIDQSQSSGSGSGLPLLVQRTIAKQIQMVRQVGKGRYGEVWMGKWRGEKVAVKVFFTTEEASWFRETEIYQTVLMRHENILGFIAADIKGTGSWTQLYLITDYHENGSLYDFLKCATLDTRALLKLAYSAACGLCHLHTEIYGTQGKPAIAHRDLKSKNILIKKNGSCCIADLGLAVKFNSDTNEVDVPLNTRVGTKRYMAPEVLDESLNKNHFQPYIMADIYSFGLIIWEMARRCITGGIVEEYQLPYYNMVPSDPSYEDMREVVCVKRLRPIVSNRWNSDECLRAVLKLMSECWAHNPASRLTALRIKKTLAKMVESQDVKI
Sequence of Epithelial discoidin domain-containing receptor 1 (Homo sapiens) (Q08345 whole entry, the tested form may be a part): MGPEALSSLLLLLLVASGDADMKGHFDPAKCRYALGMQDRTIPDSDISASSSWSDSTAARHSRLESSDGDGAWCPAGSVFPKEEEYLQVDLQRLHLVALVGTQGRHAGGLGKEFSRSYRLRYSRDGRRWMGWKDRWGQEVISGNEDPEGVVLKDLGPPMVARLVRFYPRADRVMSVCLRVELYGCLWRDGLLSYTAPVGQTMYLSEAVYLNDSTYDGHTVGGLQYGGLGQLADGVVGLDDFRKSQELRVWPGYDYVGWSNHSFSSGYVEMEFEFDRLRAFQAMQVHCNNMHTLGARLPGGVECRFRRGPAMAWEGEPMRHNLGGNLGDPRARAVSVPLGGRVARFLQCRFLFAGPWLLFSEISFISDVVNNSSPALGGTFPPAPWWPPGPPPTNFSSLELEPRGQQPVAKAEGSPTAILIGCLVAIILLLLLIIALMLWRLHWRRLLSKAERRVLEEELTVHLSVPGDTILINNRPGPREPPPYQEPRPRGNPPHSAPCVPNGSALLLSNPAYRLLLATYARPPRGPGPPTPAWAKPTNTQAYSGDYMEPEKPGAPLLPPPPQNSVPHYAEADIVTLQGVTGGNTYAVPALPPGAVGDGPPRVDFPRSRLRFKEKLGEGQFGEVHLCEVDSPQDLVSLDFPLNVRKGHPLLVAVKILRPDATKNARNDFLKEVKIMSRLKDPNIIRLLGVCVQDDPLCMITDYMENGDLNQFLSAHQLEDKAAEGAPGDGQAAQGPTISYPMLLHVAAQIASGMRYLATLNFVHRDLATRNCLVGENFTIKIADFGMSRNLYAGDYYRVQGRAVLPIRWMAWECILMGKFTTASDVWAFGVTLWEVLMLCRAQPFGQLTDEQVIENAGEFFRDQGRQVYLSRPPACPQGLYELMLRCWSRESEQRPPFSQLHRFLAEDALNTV
Sequence of Serine/threonine-protein kinase Sgk2 (Homo sapiens) (Q9HBY8 whole entry): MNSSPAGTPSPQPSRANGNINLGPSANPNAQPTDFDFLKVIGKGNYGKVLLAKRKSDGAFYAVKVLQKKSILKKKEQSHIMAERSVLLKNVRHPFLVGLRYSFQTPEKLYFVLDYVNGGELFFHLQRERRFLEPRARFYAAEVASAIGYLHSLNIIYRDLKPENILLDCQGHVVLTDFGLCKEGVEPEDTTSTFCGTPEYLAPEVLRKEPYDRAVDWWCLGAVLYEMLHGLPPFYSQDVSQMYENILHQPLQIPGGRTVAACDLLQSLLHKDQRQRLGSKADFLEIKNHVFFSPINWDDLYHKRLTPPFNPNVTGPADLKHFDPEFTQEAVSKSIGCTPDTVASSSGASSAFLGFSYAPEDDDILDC
Sequence of Mitogen-activated protein kinase 7 (Homo sapiens) (Q13164 2-816 limits assumed): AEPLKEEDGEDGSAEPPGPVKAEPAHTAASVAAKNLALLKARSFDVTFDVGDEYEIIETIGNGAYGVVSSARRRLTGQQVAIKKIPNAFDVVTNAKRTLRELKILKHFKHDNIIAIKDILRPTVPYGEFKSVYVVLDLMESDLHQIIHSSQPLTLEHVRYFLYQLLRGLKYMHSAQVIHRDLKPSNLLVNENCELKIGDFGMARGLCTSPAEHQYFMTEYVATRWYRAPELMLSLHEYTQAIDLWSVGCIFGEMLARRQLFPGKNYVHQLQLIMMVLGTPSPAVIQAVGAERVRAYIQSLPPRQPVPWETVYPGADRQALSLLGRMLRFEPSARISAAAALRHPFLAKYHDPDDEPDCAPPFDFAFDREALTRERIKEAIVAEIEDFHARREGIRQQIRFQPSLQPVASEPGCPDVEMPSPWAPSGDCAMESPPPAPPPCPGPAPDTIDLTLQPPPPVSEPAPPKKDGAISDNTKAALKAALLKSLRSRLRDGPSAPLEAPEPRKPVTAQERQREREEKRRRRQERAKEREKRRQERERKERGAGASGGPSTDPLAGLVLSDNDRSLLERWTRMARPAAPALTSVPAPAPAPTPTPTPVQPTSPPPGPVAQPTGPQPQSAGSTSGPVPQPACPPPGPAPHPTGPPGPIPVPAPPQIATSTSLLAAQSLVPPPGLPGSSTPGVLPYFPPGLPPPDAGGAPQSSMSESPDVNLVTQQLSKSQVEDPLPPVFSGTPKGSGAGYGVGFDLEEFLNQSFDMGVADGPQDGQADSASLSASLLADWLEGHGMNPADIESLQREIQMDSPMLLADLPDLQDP
Sequence of Aurora kinase A (Homo sapiens) (O14965 whole entry): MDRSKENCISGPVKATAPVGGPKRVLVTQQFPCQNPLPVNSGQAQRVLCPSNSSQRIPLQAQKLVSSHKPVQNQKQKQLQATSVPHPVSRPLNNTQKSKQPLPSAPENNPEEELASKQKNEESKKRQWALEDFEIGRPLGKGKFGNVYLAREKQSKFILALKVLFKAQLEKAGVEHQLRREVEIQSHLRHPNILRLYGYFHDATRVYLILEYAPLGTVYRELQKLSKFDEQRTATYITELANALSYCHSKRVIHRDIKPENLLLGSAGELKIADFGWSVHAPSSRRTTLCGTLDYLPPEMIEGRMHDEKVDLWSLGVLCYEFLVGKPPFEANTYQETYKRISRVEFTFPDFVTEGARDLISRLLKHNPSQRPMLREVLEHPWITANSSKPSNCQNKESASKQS

CS(=O)(=O)N1CCCC(NC(=O)[C@H](CCC2CCCCC2)NC(=O)c2ccc(CNc3ncnc4c3nnn4-c3ccccc3)cc2)C1 (stereo not given in full) [SR-301]
residual activity [1]: 97% | residual activity [2]: 60% | residual activity [3]: 100% | residual activity [4]: 90% | residual activity [5]: 90% | residual activity [6]: 72% | residual activity [7]: 100% | residual activity [8]: 94% | residual activity [9]: 100% | residual activity [10]: 71% | residual activity [11]: 89% | residual activity [12]: 96% | residual activity [13]: 100% | residual activity [14]: 100% | residual activity [15]: 57% | residual activity [16]: 95% | residual activity [17]: 100% | residual activity [18]: 80% | residual activity [19]: 90% | residual activity [20]: 96% | residual activity [21]: 95% | residual activity [22]: 83% | residual activity [23]: 87% | residual activity [24]: 100% | residual activity [25]: 88% | residual activity [26]: 100% | residual activity [27]: 100% | residual activity [28]: 100% | residual activity [29]: 100% | residual activity [30]: 100% | residual activity [31]: 94% | residual activity [32]: 100% | residual activity [33]: 90% | residual activity [34]: 82% | residual activity [35]: 100% | residual activity [36]: 99% | residual activity [37]: 95% | residual activity [38]: 100% | residual activity [39]: 100% | residual activity [40]: 100% | residual activity [41]: 70% | residual activity [42]: 100% | residual activity [43]: 100% | residual activity [44]: 100% | residual activity [45]: 82%

CS(=O)(=O)N1CCCC(NC(=O)[C@H](CCC2CCCCC2)NC(=O)c2ccc(CNC(=O)c3cnc4ccccn34)cc2)C1 (stereo not given in full) [SR-302]
residual activity [1]: 100% | residual activity [2]: 77% | residual activity [3]: 100% | residual activity [4]: 94% | residual activity [5]: 92% | residual activity [6]: 100% | residual activity [7]: 94% | residual activity [8]: 94% | residual activity [9]: 89% | residual activity [10]: 100% | residual activity [11]: 0.1% | residual activity [12]: 100% | residual activity [13]: 100% | residual activity [14]: 100% | residual activity [15]: 81% | residual activity [16]: 96% | residual activity [17]: 76% | residual activity [18]: 100% | residual activity [19]: 100% | residual activity [20]: 100% | residual activity [21]: 88% | residual activity [22]: 100% | residual activity [23]: 37% | residual activity [24]: 100% | residual activity [25]: 93% | residual activity [26]: 100% | residual activity [27]: 100% | residual activity [28]: 100% | residual activity [29]: 100% | residual activity [30]: 100% | residual activity [31]: 100% | residual activity [32]: 100% | residual activity [33]: 100% | residual activity [34]: 100% | residual activity [35]: 100% | residual activity [36]: 84% | residual activity [37]: 100% | residual activity [38]: 100% | residual activity [39]: 72% | residual activity [40]: 93% | residual activity [41]: 61% | residual activity [42]: 100% | residual activity [43]: 100% | residual activity [44]: 100% | residual activity [45]: 70%
